Measurements as given in US20030082610A1, “Use of a gene change in gene GNB3 coding for the B3 subunit of human G proteins” (SniP Biotech GmbH & Co. KG, priority 2001, published 2003).

Assay: placebo-controlled clinical study on the gene-dependent (GNB3 C825T) effectiveness of Sibutramine for weight reduction
Format: in vivo, human
Procedure: A placebo-controlled clinical study on the gene-dependent effectiveness of Sibutramine was carried out. This study included 105 patients with a body-mass index between 30 and 40 kg/m^2. All patients received a reduced calorie diet of maximum 1500-2000 kcal per day. Moreover the patients were urged to increase their physical activity and for example to walk at least 30 minutes a day at an increased pace. Forty nine patients received 15 mg Sibutramine daily to support weight reduction, while 56 patients received a placebo. The therapy was continued for 54 weeks. The body weight and body size of all patients were known at the beginning of the study and after 54 weeks of therapy. The end points of the study were the weight loss after 54 weeks, the number of patients with at least 5% reduction in body weight, and the number of patients with at least 10% reduction of body weight.
From all patients, DNA was isolated from a blood sample in order to analyze the C825T allele status in gene GNB3. Genotyping was done by means of PCR reaction and restriction analysis in processes familiar to one skilled in the area. The study results are shown in the graph of FIG. 1. In the placebo group, the average weight reduction was 5.3±7.3 kg, while the weight loss in the group treated with Sibutramine was 10.0±8.7 kg. This difference was statistically significant (p=0.036). FIG. 1 illustrates the genotype-dependent weight loss. In the placebo group, the average weight reduction was 9.1±2.8 kg for the TT genotype, 7.4±1.5 kg for the TC genotype, but only 2.8±1.1 kg for the CC genotype. This difference was statistically significant (One-way ANOVA, P=0.03).

## CC(C)CC(N(C)C)C1(c2ccc(Cl)cc2)CCC1 (stereo not shown) [Sibutramine]
825T allele carriers, 54 weeks, p=0.26, not significant
  odds ratio (OR) for a 5% weight loss, Sibutramine compared to placebo: 1.8
825T allele carriers, 54 weeks, p=0.4
  odds ratio (OR) for a 10% weight loss, Sibutramine compared to placebo: 1.6
CC genotype (825C allele carrier), 15 mg Sibutramine daily, 54 weeks
  weight loss: 9.9 kg
CC genotype, re-examined 2 years after the end of the study, p=0.0358
  odds ratio (OR) for a 5% weight reduction, long-term, Sibutramine versus placebo: 4.4
TT/TC genotype (825T allele carriers), 15 mg Sibutramine daily, 54 weeks
  further weight loss compared to placebo: no further weight loss compared to the placebo
All genotypes, patients BMI 30-40 kg/m^2, 15 mg Sibutramine daily plus reduced calorie diet and physical activity, after 54 weeks
  weight loss (average weight reduction): 10.0 ± 8.7 kg
Carriers of the 3882A allele and the 5249G allele
  effect of Sibutramine compared to placebo on weight loss: same favorable results as for the 825C allele carrier
Genotype not printed (contrasted with CC), 2 years after the end of the study, p 0.2139, not significant
  odds ratio (OR) for a 5% weight reduction, long-term, Sibutramine versus placebo: 2.333
Homozygotic 825C allele carriers (CC genotype), 54 weeks, p 0.0002
  odds ratio (OR) for losing more than 5% body weight, Sibutramine compared to placebo: 12.0
Homozygotic 825C allele carriers (CC genotype), 54 weeks, p 0.0028
  odds ratio (OR) for the 10% weight reduction, Sibutramine compared to placebo: 9.69
